As usually defined, the IC50 is the concentration that inhibits the measured activity by half.

The structures appear in SMILES notation. Read-outs that look alike come from different tables or passages of the source.

One assay concerns the target T1, recombinant PDK-1 (Homo sapiens, UniProt O15530).
T1 construct: purchased Upstate (Lake Placid, N.Y.)
T1 sequence (O15530 1-556): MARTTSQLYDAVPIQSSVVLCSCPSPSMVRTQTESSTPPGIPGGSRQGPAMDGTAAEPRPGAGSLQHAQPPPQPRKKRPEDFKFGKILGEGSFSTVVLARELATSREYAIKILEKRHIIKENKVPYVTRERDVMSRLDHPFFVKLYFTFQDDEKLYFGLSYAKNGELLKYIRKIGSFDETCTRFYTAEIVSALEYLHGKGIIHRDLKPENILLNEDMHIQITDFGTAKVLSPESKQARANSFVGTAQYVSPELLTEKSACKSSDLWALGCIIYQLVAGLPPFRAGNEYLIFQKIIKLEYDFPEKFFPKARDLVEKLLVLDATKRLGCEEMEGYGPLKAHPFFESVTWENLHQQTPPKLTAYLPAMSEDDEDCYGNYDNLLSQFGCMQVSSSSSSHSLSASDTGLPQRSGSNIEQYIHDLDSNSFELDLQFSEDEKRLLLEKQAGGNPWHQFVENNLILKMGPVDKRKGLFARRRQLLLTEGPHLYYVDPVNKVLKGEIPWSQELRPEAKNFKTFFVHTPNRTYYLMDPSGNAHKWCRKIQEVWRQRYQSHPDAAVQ
Nature of the assay: PDK-1 kinase activity (Upstate kit, SGK-coupled, cell-free). In kind it is biochemical.

A further assay relates to PC-3 cells. In words: Cell viability analysis (MTT) in PC-3 cells. The assay is classed as cell-based, human. The settings on record: Homo sapiens; inducing apoptotic death in PC-3 cells / PC-3 cell viability; read-out: IC50 PC-3. As for the experimental part:
Cell Culture PC-3 (p53−/−) human androgen-nonresponsive prostate cancer cells were purchased from the American […] (Manassas, Va.). Cells were cultured in RPMI 1640 medium (Gibco, Grand Island, N.Y.) supplemented with 10% fetal bovine serum (FBS; Gibco) at 37° C. in a humidified incubator containing 5% CO2.
Cell viability analysis The effect of 4-[5-(4-methylphenyl)-3-(trifluoromethyl)-1H-pyrazol-1-yl]benzenesulfonamide and its derivatives on PC-3 cell viability was assessed by using the MTT {[3-(4,5-dimethylthiazol-2-yl)-2,5-diphenyl-2H-tetrazolium bromide]} assay in six replicates. Cells were grown in 10% FBS-supplemented RPMI 1640 medium in 96-well, flat bottomed plates for 24 h, and were exposed to various concentrations of compounds 1-36 dissolved in DMSO (final concentration ≦0.1%) in 1% serum-containing RPMI 1640 medium for different time intervals. Controls received DMSO vehicle at a concentration equal to that in drug-treated cells. The medium was removed, replaced by 200 μl of 0.5 mg/ml of MTT in 10% FBS-containing RPMI-1640 medium, and cells were incubated in the CO2 incubator at 37° C. for 2 h. Supernatants were removed from the wells, and the reduced MTT dye was solubilized in 200 μL/well DMSO. Absorbance at 570 nm was determined on a plate reader.

The mark [1] stands for this setting: inhibiting recombinant PDK-1 kinase activity, read-out: IC50 PDK-1.

As to `CCCCc1ccc(-c2cc(C(F)(F)F)nn2-c2ccc(S(N)(=O)=O)cc2)cc1` [Compound 41, 4-[5-(4-butylphenyl)-3-(trifluoromethyl)-1H-pyrazol-1-yl]benzenesulfonamide], the results for the IC50 at recombinant PDK-1 and in the assay with PC-3 cells were 20 µM and 9 µM, respectively. As for `N#CCc1ccc(-n2nc(C(F)(F)F)cc2-c2ccc3c(ccc4ccccc43)c2)cc1` [Compound 67, {4-[5-(2-Phenanthrenyl)-3-(trifluoromethyl)-1H-pyrazol-1-yl]-phenyl}-acetonitrile], the IC50 was determined as 42 µM on recombinant PDK-1 (setting [1]) and 25 µM with PC-3 cells. On to `Cc1ccc(-c2cc(C(F)(F)F)nn2-c2ccc(S(N)(=O)=O)cc2)cc1` [Comparative Compound, 4-[5-(4-methylphenyl)-3-(trifluoromethyl)-1H-pyrazol-1-yl]benzenesulfonamide, reference compound], for which the concentration for half-maximal inhibition (IC50) at recombinant PDK-1 (setting [1]) is 48 µM; in the assay on PC-3 cells it was 30 µM.

In the case of `NC(=O)Nc1ccc(-n2nc(C(F)(F)F)cc2-c2ccc3c(ccc4ccccc43)c2)cc1` [Compound 72, 4-[5-(2-Phenanthrenyl)-3-(trifluoromethyl)-1H-pyrazol-1-yl]phenyl urea], the half-maximal inhibitory concentration (IC50) at recombinant PDK-1 (setting [1]) was determined as 40 µM; with PC-3 cells, 24 µM.

`O/N=C/c1ccc(-n2nc(C(F)(F)F)cc2-c2ccc3c(ccc4ccccc43)c2)cc1` [Compound 65, 4-5[-(2-Phenanthrenyl)-3-(trifluoromethyl)-1H-pyraxol-1-yl]-benzaldehyde oxime]: in the assay with PC-3 cells, the IC50 amounted to 14 µM. Take `NS(=O)(=O)c1ccc(-n2nc(C(F)(F)F)cc2-c2ccc(-c3cc(Cl)c(Cl)cc3Cl)cc2)cc1` [Compound 49, 4-[5-(2′,4′,5′-trichloro[1,1′-biphenyl]-4-yl)-3(trifluoromethyl)-1H-pyrazol-1-yl]benzenesulfonamide]: the figures for the 50% inhibitory concentration (IC50) on recombinant PDK-1 and with PC-3 cells were 9 µM and 5 µM, respectively.

For the compound `NS(=O)(=O)c1ccc(-n2nc(C(F)(F)F)cc2-c2ccc(CCBr)cc2)cc1` [Compound 37, 4-[5-(4-(2-bromoethyl)phenyl)-3-(trifluoromethyl)-1H-pyrazol-1-yl]benzenesulfonamide], the figures for the IC50 on recombinant PDK-1 and in the assay with PC-3 cells were 42 µM and 18 µM, respectively. Regarding `NS(=O)(=O)c1ccc(-n2nc(C(F)(F)F)cc2-c2c3ccccc3cc3ccccc23)cc1` [Compound 58, 4-[5-(9-anthracenyl)-3-(trifluoromethyl)-1H-1-yl]benzenesulfonamide], the IC50 at recombinant PDK-1 (setting [1]) turned out to be 12 µM; in the assay on PC-3 cells, 7 µM. Regarding `NS(=O)(=O)c1ccc(-n2nc(C(F)(F)F)cc2-c2ccc(-c3ccccc3)cc2)cc1` [Compound 45], the results for the concentration for half-maximal inhibition (IC50) on recombinant PDK-1 (setting [1]) and in the assay on PC-3 cells were 21 µM and 11 µM, respectively. On to `NS(=O)(=O)c1ccc(-n2nc(C(F)(F)F)cc2-c2ccc(CCCBr)cc2)cc1` [Compound 38, 4-[5-(4-(3-bromopropyl)phenyl)-3-(trifluoromethyl)-1H-pyrazol-1-yl]benzenesulfonamide], for which the 50% inhibitory concentration (IC50) at recombinant PDK-1 is 38 µM; in the assay with PC-3 cells, 17 µM. On to `NN=Cc1ccc(-n2nc(C(F)(F)F)cc2-c2ccc3c(ccc4ccccc43)c2)cc1` [Compound 66, 4-[5-(2-Phenanthrenyl)-3-(trifluoromethyl)-1H-pyrazol-1-yl]-benzaldehyde hydrazone], for which the IC50 on recombinant PDK-1 (setting [1]) was 16 µM; in the assay with PC-3 cells, 10 µM. With `NC(=O)c1ccc(-n2nc(C(F)(F)F)cc2-c2ccc3c(ccc4ccccc43)c2)cc1` [Compound 61, 4-[5-(2-Phenanthracenyl)-3-(trifluoromethyl)-1H-pyrazol-1-yl]-benzenecarboxamide], the figures for the half-maximal inhibitory concentration (IC50) on recombinant PDK-1 (setting [1]) and in the assay with PC-3 cells were 12 µM and 7 µM, respectively. On to `NS(=O)(=O)c1ccc(-n2nc(C(F)(F)F)cc2-c2ccc(-c3ccc(CBr)cc3)cc2)cc1` [Compound 52, 4-[5-(4′-bromomethyl[1,1′-biphenyl]-4-yl)-3-(trifluoromethyl)-1H-1-yl]benzenesulfonamide], for which the values for the IC50 on recombinant PDK-1 (setting [1]) and in the assay with PC-3 cells were 20 µM and 11 µM, respectively. Take `NC(Cc1ccc(-n2nc(C(F)(F)F)cc2-c2ccc3c(ccc4ccccc43)c2)cc1)=NO` [Compound 68, 2-{4-[5-(2-Phenanthrenyl)-3-(trifluoromethyl)-1H-pyrazol-1-y]-phenyl}-N-hydroxy-acetamidine]: in the assay on PC-3 cells, the IC50 came out at 8 µM. For the compound `NS(=O)(=O)c1ccc(-n2nc(C(F)(F)F)cc2-c2ccc(-c3ccc(Cl)cc3)cc2)cc1` [Compound 46, 4-[5-(4′-chloro[1,1′-biphenyl]-4-yl)-3-(trifluoromethyl)-1H-pyrazol-1-yl]benzenesulfonamide], the IC50 on recombinant PDK-1 was 22 µM; with PC-3 cells it was 9 µM. For `NS(=O)(=O)c1ccc(-n2nc(C(F)(F)F)cc2-c2c[nH]c3ccccc23)cc1` [Compound 44, 4-[5-(3-indolyl)-3(trifluoromethyl)-1H-pyrazol-1-yl]benzenesulfonamide], the IC50 amounted to 65 µM at recombinant PDK-1 and 31 µM in the assay on PC-3 cells. Take `Cc1ccc(-c2ccc(-c3cc(C(F)(F)F)nn3-c3ccc(S(N)(=O)=O)cc3)cc2)cc1` [Compound 50, 4-[5-(4′-methyl[1,1′-biphenyl]4-yl)-3-(trifluoromethyl)-1H-1-yl]benzenesulfonamide]: the IC50 in the assay with PC-3 cells was 8 µM.

`N#Cc1ccc(-n2nc(C(F)(F)F)cc2-c2ccc3c(ccc4ccccc43)c2)cc1` [Compound 62, 4-[5-(2-Phenanthrenyl)-3-(trifluoromethyl)-1H-pyrazol-1-yl]-benzonitrile]: the half-inhibitory concentration (IC50) on recombinant PDK-1 (setting [1]) is 45 µM; with PC-3 cells it was 30 µM. Take `N=C(NO)c1ccc(-n2nc(C(F)(F)F)cc2-c2ccc3c(ccc4ccccc43)c2)cc1` [Compound 63, 4-[5-(2-Phenanthrenyl)-3-(trifluoromethyl)-1H-pyrazol-1-yl]-N-hydroxybenzamidine]: the IC50 on recombinant PDK-1 came to 40 µM; in the assay on PC-3 cells, 25 µM.

With `NS(=O)(=O)c1ccc(-n2nc(C(F)(F)F)cc2-c2ccc(-c3cccc(Cl)c3Cl)cc2)cc1` [Compound 48, 4-[5-(2′,3′-dichloro[1,1′-biphenyl]-4-yl)-3-(trifluoromethyl)-1H-pyrazol-1-yl]benzenesulfonamide], the IC50 on recombinant PDK-1 (setting [1]) was found to be 23 µM; in the assay with PC-3 cells it was 10 µM.

Turning to `NS(=O)(=O)c1ccc(-n2nc(C(F)(F)F)cc2-c2ccc(Cc3ccccc3)cc2)cc1` [Compound 56, 4-[5-(4-(phenylmethyl)phenyl)-3-(trifluoromethyl)-1H-1-yl]benzenesulfonamide], in the assay with PC-3 cells, the IC50 was determined as 8 µM. In the case of `CCCCc1ccc(-c2ccc(-c3cc(C(F)(F)F)nn3-c3ccc(S(N)(=O)=O)cc3)cc2)cc1` [Compound 54, 4-[5-(4′-butyl[1,1′-biphenyl]-4-yl)-3-(trifluoromethyl)-1H-1-yl]benzenesulfonamide], the half-maximal inhibitory concentration (IC50) came to 32 µM on recombinant PDK-1 (setting [1]) and 15 µM in the assay on PC-3 cells.

`CC(C)(C)c1ccc(-c2cc(C(F)(F)F)nn2-c2ccc(S(N)(=O)=O)cc2)cc1` [Compound 42, 4-[5-(4-t-butylphenyl)-3-(trifluoromethyl)-1H-pyrazol-1-yl]benzenesulfonamide]: the 50% inhibitory concentration (IC50) at recombinant PDK-1 amounted to 34 µM; in the assay with PC-3 cells it was 18 µM. With `NS(=O)(=O)c1ccc(-n2nc(C(F)(F)F)cc2-c2ccc3c(c2)Cc2ccccc2-3)cc1` [Compound 57, 4-[5-(9H-fluoren-2-yl)-3-(trifluoromethyl)-1H-1-yl]benzenesulfonamide], on recombinant PDK-1 (setting [1]), the IC50 is 16 µM.

As to `Cc1cc(C)cc(-c2ccc(-c3cc(C(F)(F)F)nn3-c3ccc(S(N)(=O)=O)cc3)cc2)c1` [Compound 53, 4-[5-(3′,5′-dimethyl[1,1;-biphenyl]-4-yl)-3-(trifluoromethyl)-1H-1-yl]benzenesulfonamide], the IC50 at recombinant PDK-1 (setting [1]) stood at 17 µM.

Source of the values: US20060079566A1, “PDK-1/Akt signaling inhibitors” (priority 2003, published 2006).
